# System: not listed separately
# Test: Toxicity, single oral administration to mice
# Details: mouse, in vivo, p.o., no toxic symptoms at the dosage indicated, read-out: Toxicity, Dosage (no toxic symptoms observed at this amount)
# Source text: The results which have been obtained with representative members of the class of substance defined by formula I in the previously described experiment are compiled in the following Table. Moreover, the Table contains data concerning the toxicity of some of these compounds.
row,Compound,NOAEL [mg/kg]
1,"CCCCCCCCCCC[C@@]1(C)OO[C@@H]2C[C@H]1CC(=O)[C@@H]2C [(CH2)10CH3 (1R, 4R, 5S, 8R), (1R,4R,5S,8R)-4,8-dimethyl-4-undecyl-2,3-dioxabicyclo[3.3.1]nonan-7-one]",3000
2,"CCCCCCCCCCC[C@]1(C)OO[C@@H]2C[C@H]1CC(=O)[C@@H]2C [(CH2)10CH3 (1R, 4S, 5S, 8R), (1R,4S,5S,8R)-4,8-dimethyl-4-undecyl-2,3-dioxabicyclo[3.3.1]nonan-7-one]",3000
3,C[C@H]1C(=O)C[C@@H]2C[C@H]1OO[C@]2(C)/C=C\c1cc(C(F)(F)F)nc2cc(C(F)(F)F)ccc12 [drawing 9],6000

# System: Plasmodium berghey
# Test: Blood schizontocidal activity in infected mice (ED50, s.c., four-fold administration)
# Type: in vivo, Plasmodium berghey; male albino mice
# Details: mice infected with Plasmodium berghey, first 3 h after infection and on three subsequent days, smears D+4
# Description: They have a pronounced blood schizontocidal activity. The activity of the substances in accordance with the invention can be determined, for example, in the animal experiment described hereinafter: Male albino mice weighing 18-20 g are used as the experimental animals. They are kept in climatized rooms at 22°-23° C. in groups of 5 animals per cage. They receive ad libitum a diet feed with low PABA content and drinking water. On the first day of the experiment (DO) the experimental animals are infected with Plasmodium berghey by intravenously injecting into each of the experimental animals 0.2 ml of heparinized blood of infected donor mice. The donor blood is diluted so that it contains 10^7 parasitized erythrocytes per 0.2 ml. In untreated control animals the parasitemia normally reaches 70-80% on the fourth day after the infection (D+4) and the experimental animals die between days +5 to +8. The substances to be tested are dissolved or suspended in distilled water or in a mixture of Tween 80, alcohol (96%) and water. Generally, in each case 0.5 ml of this solution or suspension is administered subcutaneously to groups of 5 experimental animals. The treatment is effected for the first time 3 hours after the infection as well as on the three subsequent days. Suitable dilutions of the test compounds are used for the titration of the activity. Per experiment 10 animals are treated in the same manner with the solution or suspension medium. 24 hours after the last treatment (D+4) blood smears with blood from tail veins are prepared from all animals and stained with giemsa. The average erythrocyte infection rate (parasitemia in %) in the control group as well as in the groups which have been treated with the compounds to be tested is determined by counting under the microscope. The difference in the average value of the infection rate between control group (100%) and the treated groups is calculated and expressed as the percentage reduction. The ED50 is determined mathematically from the results obtained. The ED50 in mg/kg is that dosage which, after four-fold administration, reduces to 50% the average erythrocyte infection rate in comparison to the control group. The results which have been obtained with representative members of the class of substance defined by formula I in the previously described experiment are compiled in the following Table. Moreover, the Table contains data concerning the toxicity of some of these compounds.
row,Compound,"Activity ED50 (dosage which, after four-fold administration, reduces to 50% the average erythrocyte infection rate versus control) [mg/kg]"
1,"CCCCCCCC/C=C/[C@]1(C)OO[C@@H]2C[C@H]1CC(=O)[C@@H]2C [CHCH(CH2)7CH3 (1R, 4R, 5S, 8R), (1R,4R,5S,8R)-4-[(E)-1-decenyl]-4.8-dimethyl-2,3-dioxabicyclo[3.3.1]nonan-7-one]",6.2
2,"CCCCCCCCCC[C@@]1(C)OO[C@@H]2C[C@H]1CC(=O)[C@@H]2C [(CH2)9CH3 (1R, 4R, 5S, 8R), (1R,4R,5S,8R)-4-decyl-4,8-dimethyl-2,3-dioxabicyclo[3.3.1]nonan-7-one]",5.2
3,"CCCCCCCCCCC[C@@]1(C)OO[C@@H]2C[C@H]1CC(=O)[C@@H]2C [(CH2)10CH3 (1R, 4R, 5S, 8R), (1R,4R,5S,8R)-4,8-dimethyl-4-undecyl-2,3-dioxabicyclo[3.3.1]nonan-7-one]",5.2
4,"CCCCCCCC[C@@]1(C)OO[C@@H]2C[C@H]1CC(=O)[C@@H]2C [(CH2)7CH3 (1R, 4R, 5S, 8R), (1R,4R,5S,8R)-4,8-dimethyl-4-octyl-2,3-dioxabicyclo[3.3.1]nonan-7-one]",6.4
5,"CCCCCCCCC[C@@]1(C)OO[C@@H]2C[C@H]1CC(=O)[C@@H]2C [(CH2)8CH3 (1R, 4R, 5S, 8R), (1R,4R,5S,8R)-4.8-dimethyl-4-nonyl-2,3-dioxabicyclo[3.3.1]nonan-7-one]",3.6
6,"C[C@@H]1C(=O)C[C@H]2C[C@@H]1OO[C@@]2(C)/C=C\c1ccc(Cl)cc1Cl [drawing 10 (1S, 4R, 5R, 8S)]",4.6
7,"C[C@H]1C(=O)C[C@@H]2C[C@H]1OO[C@]2(C)/C=C\c1cc(C(F)(F)F)nc2cc(C(F)(F)F)ccc12 [drawing 9 (1R, 4S, 5S, 8R)]",6.2
8,"CCCCCCCCCCC[C@]1(C)OO[C@@H]2C[C@H]1CC(=O)[C@@H]2C [(CH2)10CH3 (1R, 4S, 5S, 8R), (1R,4S,5S,8R)-4,8-dimethyl-4-undecyl-2,3-dioxabicyclo[3.3.1]nonan-7-one]",3.4
9,"CCCCCCCCCC[C@]1(C)OO[C@@H]2C[C@H]1CC(=O)[C@@H]2C [(CH2)9CH3 (1R, 4S, 5S, 8R), (1R,4S,5S,8R)-4-decyl-4,8-dimethyl-2,3-dioxabicyclo[3.3.1]-nonan-7-one]",3.4
10,"C[C@@H]1C(=O)C[C@H]2C[C@@H]1OO[C@@]2(C)/C=C\c1cc(C(F)(F)F)nc2cc(C(F)(F)F)ccc12 [drawing 9 (1S, 4R, 5R, 8S)]",5.4
11,"CCCCCCCCCCC[C@]1(C)OO[C@H]2C[C@@H]1CC(=O)[C@H]2C [(CH2)10CH3 (1S, 4S, 5R, 8S), (1S,4S,5R,8S)-4,8-dimethyl-4-undecyl-2,3-dioxabicyclo[3.3.1]nonan-7-one]",5.9
12,"CCCCCCCC[C@]1(C)OO[C@@H]2C[C@H]1CC(=O)[C@@H]2C [(CH2)7CH3 (1R, 4S, 5S, 8R), (1R,4S,5S,8R)-4,8-dimethyl-4-octyl-2,3-dioxabicyclo[3.3.1]nonan-7-one]",5.2
13,"CCCCCCCCCCC[C@@]1(C)OO[C@H]2C[C@@H]1CC(=O)[C@H]2C [(CH2)10CH3 (1S, 4R, 5R, 8S), (1S,4R,5R,8S)-4,8-dimethyl-4-undecyl-2,3-dioxabicyclo[3.3.1]nonan-7-one]",4.6
14,"CCCCCCCCC[C@]1(C)OO[C@@H]2C[C@H]1CC(=O)[C@@H]2C [(CH2)8CH3 (1R, 4S, 5S, 8R), (1R,4S,5S,8R)-4,8-dimethyl-4-nonyl-2,3-dioxabicyclo[3.3.1]nonan-7-one]",6.0
15,"CCCCCCCC/C=C/[C@@]1(C)OO[C@@H]2C[C@H]1CC(=O)[C@@H]2C [CHCH(CH2)7CH3 (1R, 4S, 5S, 8R), (1R,4S,5S,8R)-4-[(E)-1-decenyl]-4,8-dimethyl-2,3-dioxabicyclo[3.3.1]nonan-7-one]",4.5
